The target in one assay is FKBP12/YY1 (Mus musculus, UniProt P26883). Nature of the assay: Co-immunoprecipitation after Yy1 pull-down in cultured TECs. Type of assay: cell-based. The following applies: FK506 added to culture media, IP: Yy1.
Assay [1] deals with proximal ALK3 promoter (CACGTG E-box motif). Nature of the assay: ALK3 ChIP-PCR after Arnt pull-down. Type of assay: cell-based, mouse. The note with it: TECs upon exposure to FK506. The procedure:
DNA and protein interaction was performed with the OneDay ChIP Kit (Diagenode, Seraing, Belgium) according to the manufacturer's instructions. 2×10^7 MCT cells have been used for each ChIP reaction. Cell lysates were sonicated using an ultrasonic processor S-4000 (Misonix, Farmingdale, USA). Immunoprecipitation was performed with a ChIP grade antibody against Yy1 (ab12132, Abcam Biochemicals, Cambridge, UK) and Arnt (3718, Cell Signaling, Danvers, USA). Enriched DNA was analyzed by qRT-PCR with EpiTect ChIP qPCR primers for genomic Arnt (Qiagen, Hilden, Germany), oligonucleotide sequences for genomic Alk3 are listed in Table 10.

The test system of assay [2] is ARNT dimers. The assay can be described thus: Native gel electrophoresis of endogenous ARNT in TECs. Type of assay: cell-based, mouse. The note with it: TECs upon exposure to FK506. An excerpt: (§1) Tissue and cells were homogenized in NP40 lysis buffer (Life technologies, Carlsbad, USA) supplemented with protease inhibitor cocktail (Roche, Basel, Switzerland). After sonication, protein samples were resolved by a 4-12% Bis-Tris polyacrylamide gel electrophoresis system (Novex, Carlsbad, USA) and transferred onto a nitrocellulose membrane (GE Healthcare, Freiburg, Deutschland), followed by a blocking step with 5% dry milk or 5% bovine serum albumin (BSA) in TBS-T (TBS pH 7.2, 0.1% Tween-20) to prevent unspecific bindings. After incubation with respective primary antibodies against ALK3 (ABD51, Merck Millipore, Billerica, USA) and ALK6 (ABD50, Merck Millipore, Billerica, USA), pSmad1/5/8 (13820, Cell Signaling, Danvers, USA), Arnt (3718, Cell Signaling, Danvers, USA), Fkbp12 (ab2918, Abcam Biochemicals, Cambridge, UK), NFATc1 (sc-7294, Santa Cruz Biotechnology, Dallas, USA), NFATc2 (sc-7295, Santa Cruz Biotechnology, Dallas, USA), β-actin (A5316, Sigma, St. Louis, USA) and Gapdh (5G4, HyTest, Turku, Finland), secondary HRP-conjugated antibodies were used (Dako, Glostrup, Denmark). Luminescence was detected by using chemiluminescent substrate (Cell Signaling, Danvers, USA) on a ChemiDoc XRS system (Bio-Rad, Hercules, USA). Native protein samples were prepared with Native PAGE Sample Prep kit (Novex, Carlsbad, USA) according to the manufacturer's instruction. […]

Assay [3] concerns ARNT dimers. The assay can be described thus: Native gel analysis of total kidney lysates after Arnt pulldown (UUO mice). The assay is classed as in vivo. The following applies: UUO mice treated with FK506; without interaction with HIF1α, HIF2α or AHR.
Text: as §1

Assay [4] relates to intrarenal ARNT and ALK3 transcription. The following applies: GSE1563; regimens including FK506 compared to CsA; cited from earlier work.

FKBP12/YY1, sequence (P26883 whole entry): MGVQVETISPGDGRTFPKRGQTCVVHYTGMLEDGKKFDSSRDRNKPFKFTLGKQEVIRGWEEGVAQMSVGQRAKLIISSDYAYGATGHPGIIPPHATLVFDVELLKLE
Experimental for FKBP12/YY1: CoIP was performed with Protein G Immunoprecipitation Kit (Roche, Basel, Switzerland). Protein A/G PLUS Agarose beads (Santa Cruz Biotechnology, Santa Cruz, USA) were used for the lysate pre-cleaning and pull-down. For each CoIP, 2×10^7 MCT cells have been used following the manufacturer's instructions. Yy1 (ab12132, Abcam Biochemicals, Cambridge, UK), Fkbp12 (ab2918, Abcam Biochemicals, Cambridge, UK), Arnt (3718, Cell Signaling, Danvers, USA), GFP (MA5-15256, Thermo Fisher Scientific, Waltham, USA) and myc-tag antibodies (2276, Cell Signaling, Danvers, USA) were used for immunoprecipitation, detection of co-immunoprecipitated Fkbp12 (ab12132, Abcam Biochemicals, Cambridge, UK), Hif1α ([MUT], Sigma, St. Louis, USA), Ahr (MA1-514, Thermo Fisher Scientific, Waltham, USA), GFP (MA5-15256, Thermo Fisher Scientific, Waltham, USA) and myc-tag (2276, Cell Signaling, Danvers, USA) was performed by immunoblotting.

As for `C=CC[C@@H]1/C=C(\C)C[C@H](C)C[C@H](OC)[C@H]2O[C@@](O)(C(=O)C(=O)N3CCCC[C@H]3C(=O)O[C@H](/C(C)=C/[C@@H]3CC[C@@H](O)[C@H](OC)C3)[C@H](C)[C@@H](O)CC1=O)[C@H](C)C[C@@H]2OC` [FK506, tacrolimus], the FKBP12/YY1 interaction result on FKBP12/YY1 is “not detectable”. Moreover, the “ARNT binding to CACGTG motif within the proximal ALK3 promoter” value in assay [1] is recorded as “significantly increased”. Also, the “formation of ARNT dimers” value in the assay with ARNT dimers [2] was “further enhanced”. In addition, in the assay with ARNT dimers [3], the “formation of ARNT dimers in total kidney lysates” value was “increased formation of ARNT dimers”. Besides, the “intrarenal ARNT and ALK3 transcription” value in assay [4] was “enhanced”.

The values are drawn from patent publication US12440479B2, “Prevention or treatment of chronic organ injury” (GEORG-AUGUST-UNIVERSITAET GOETTINGEN, STIFTUNG …, priority 2018, dated 2025).
